“Also recorded” adds a separate entry of the source.
Legend:
[1] = test system: HFS (human foreskin fibroblast) cells; experiment: Cell growth and viability of HFS normal cells; type: cell-based
Method: (§1) FIG. 3. Cell growth of HFS (normal) and LNCaP (transformed) cells treated with compound 8 over 72 h.
(§2) FIG. 4. Cell viability of HFS (normal) and LNCaP (transformed) cells treated with compound 8 over 72 h.
(§3) Recombinant HDAC1 and HDAC6 are used to evaluate the selective inhibitory potency of each compound. Cell based assays: Normal cells (Human Foreskin Fibroblast cells), LNCaP (human prostate cancer cells), MCF-7 (human breast cancer cells, A549 (human adenocarcinoma of lung cells) and ARP-1 (human multiple myeloma cells) are used in these assays. Cells were cultured for up to 72 hr without and with the potential HDAC6-selective inhibitor. SAHA was used as a control. Cell number and cell viability were determined by enumeration. Proteins were extracted from cells and assayed for accumulation of acetylated tubulin and acetylated histones. All methods are described in Namdar et al., PNAS, 2010, 107:20003-8. In vivo animal studies: Potential HDAC6 inhibitor compounds are further assayed by administration to mice for up to 5 days with daily injections. Animals are sacrificed and tissues are analyzed for accumulation of acetylated tubulin and acetylated histones.
(§4) The effect of compound 8 on the cell growth and viability of normal (HFS, human foreskin fibroblast) and transformed (LNCaP, human prostate adenocarcinoma) cells cultured with 8, 16, 32 or 64 μM HPB for up to 72 h was evaluated.

[2] = Mouse toxicity study; type: in vivo; conditions: mice, intraperitoneal, daily for 5 days, 100, 200, or 300 mg/kg
Method: FIG. 6. Average weight of immune-deficient mice treated daily by 30 μL intraperitoneal injection with indicated doses of compound 8. DMSO is the vehicle control.
Toxicity of compound 8 in mice was determined. […] Mice were intraperitoneally injected daily for 5 days with 100, 200, or 300 mg/kg compound 8. […] The effects of compound 8 on the acetylation of alpha-tubulin and histones in the spleen isolated from mice treated with compound 8 were analyzed at three time points after the administration of the drug.

[3] = test system: LNCaP (human prostate adenocarcinoma) cells; experiment: Cell growth and viability of LNCaP cells; type: cell-based
Method: as §1, §2, §3, §4

[4] = test system: acetylated alpha-tubulin and acetylated histone H3 in LNCaP (human prostate cancer cells); experiment: Accumulation of acetylated proteins in LNCaP cells (western blot); type: cell-based; conditions: transformed cells, concentrations as high as 16 μM
[5] = test system: LNCaP (transformed) cells; experiment: Combination with anti-cancer agents in LNCaP cells; type: cell-based

Compound: O=C(NO)c1ccc(CN(CCO)C(=O)Cc2ccccc2)cc1 [Compound 8, N-hydroxy-4-((N-(2-hydroxyethyl)-2-phenylacetamido)methyl) benzamide]
- cell growth ([1]; HFS, 8, 16, 32 or 64 μM, up to 72 h, FIG. 3): inhibited cell growth of normal and transformed cells in a concentration dependent manner
- cell death / cell viability ([1]; HFS, 8, 16, 32 or 64 μM, up to 72 h, FIG. 4): did not induce cell death of normal or transformed cells
- normal cell death ([1]; concentrations ≤16 μM): do not induce normal cell death
- tolerability in animals [2]: well tolerated
- weight loss ([2]; FIG. 6): no weight loss
- cell growth (cell number) ([3]; LNCaP, 8, 16, 32 or 64 μM, up to 72 h, FIG. 3): inhibited cell growth of normal and transformed cells in a concentration dependent manner; also recorded: inhibited cell number
- cell death / cell viability ([3]; LNCaP, 8, 16, 32 or 64 μM, up to 72 h, FIG. 4): did not induce cell death of normal or transformed cells; also recorded: does not decrease cell viability
- death of LNCaP cells ([3]; concentrations as high as 32 μM): no detectable death of LNCaP cells
- accumulation of acetylated PRX [4]: selectively induced accumulation of acetylated alpha-tubulin and acetylated PRX
- cell growth and cell viability in combination with etoposide ([5]; LNCaP, 50 μM etoposide and 16 μM compound 8, 72 h, versus etoposide alone): inhibition in cell growth and loss of cell viability to a greater extent than LNCaP cells cultured with etoposide alone; also recorded: enhances etoposide or SAHA-induced transformed cell death
- cell death in combination with SAHA ([5]; LNCaP, compound 8 and 5 μM SAHA, 72 h, versus SAHA alone): cell death is enhanced; also recorded: enhances etoposide or SAHA-induced transformed cell death
- cell death in combination with paclitaxel ([5]; LNCaP, paclitaxel and compound 8, 72 h, versus either drug alone): increases cell death
- cytotoxicity of anti-cancer drugs in transformed cells cultured with compound 8 ([5]; transformed cells, induction of apoptosis and accumulation of DNA damage): enhances the cytotoxicity of anti-cancer drugs

Source: patent US10626100B2, “Selective HDAC6 inhibitors” (The Trustees of Columbia University in the City of New York, priority 2013, dated 2020)
